The values below are quoted from earlier work in US10302625B2, “Peripheral measure of central brain inflammation, markers therefor and uses thereof” (CENTRE FOR ADDICTION AND MENTAL HEALTH, priority 2015, dated 2019).

This series concerns the target T1, TSPO (Sus scrofa, UniProt Q6UN27).
T1 sequence (Q6UN27 1-169): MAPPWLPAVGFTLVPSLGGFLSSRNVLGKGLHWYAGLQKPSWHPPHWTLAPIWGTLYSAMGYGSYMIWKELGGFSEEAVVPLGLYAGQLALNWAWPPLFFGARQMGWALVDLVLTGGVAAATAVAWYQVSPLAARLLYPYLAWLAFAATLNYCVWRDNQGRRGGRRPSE
To be noted: literature ref 19.

Regarding `CC(=O)N(Cc1ccccc1OCC[18F])c1cnccc1Oc1ccccc1` [[18F]FEPPA], the “affinity for TSPO” value is “high, selective affinity for TSPO”.
